Tested on: pregnant women in first trimester (nausea and vomiting, morning sickness)
Assay: Treatment of morning sickness in pregnant women with chewable tablets (volunteer reports)
Type: in vivo, human
Settings: volunteer 8, recalled from their first pregnancy
Excerpt: A group of pregnant women were provided with the tablets, as prepared in Example 3, and were advised to take one to two tablets per day.

Cc1ncc(CO)c(CO)c1O [vitamin B6, pyridoxine]
Reported effect of vitamin B6 injections on nausea of pregnancy: did not feel helped

From patent publication US8536199B2, “Oral combination of vitamins” (priority 2008, dated 2013)
